Measured values from ChEMBL document CHEMBL6177958, “6,7-Dimethoxy-2-methyl-4-substituted quinazolines: Design, synthesis, EGFR inhibitory activity, in vitro cytotoxicity, and in silico studies” (Eur J Med Chem, 2025).

Tests used:
Type in all cases: functional
[1] = test system: HCT-116; test: Cell cycle arrest in human HCT-116 cells assessed as accumulation of cells at G0-G1 phase by flow cytometry (reference value: 46.33%)
[2] = test system: HCT-116; test: Cell cycle arrest in human HCT-116 cells assessed as accumulation of cells at S phase by flow cytometry (reference value: 39.26%)
[3] = test system: HCT-116; test: Cell cycle arrest in human HCT-116 cells assessed as accumulation of cells at G2-M phase by flow cytometry (reference value: 14.41%)
[4] = test system: HCT-116; test: Induction of apoptosis in human HCT-116 cells assessed as total apoptotic cells measured after 24 hrs by PI based flow cytometry (reference value: 2.38%)
[5] = test system: HCT-116; test: Induction of apoptosis in human HCT-116 cells assessed as early apoptotic cells measured after 24 hrs by PI based flow cytometry (reference value: 0.43%)
[6] = test system: HCT-116; test: Induction of apoptosis in human HCT-116 cells assessed as late apoptotic cells measured after 24 hrs by PI based flow cytometry (reference value: […])
[7] = test system: HCT-116; test: Induction of apoptosis in human HCT-116 cells assessed as necrotic apoptotic cells measured after 24 hrs by PI based flow cytometry (reference value: 1.84%)

Structure (SMILES): COc1cc2nc(C)nc(N/N=C/c3cc(CN4CCN(C)CC4)c(O)c(OC)c3)c2cc1OC
- Activity [1]: 42.18%
- Activity [2]: 49.11%
- Activity [3]: 8.71%
- Activity [4]: 39.88%
- Activity [5]: 26.13%
- Activity [6]: 11.27%
- Activity [7]: 2.48%
